The values that follow come from patent US10590081B2, “Guanidine compounds and use thereof” (ImmunoMet Therapeutics Inc., priority 2015, dated 2020).

For orientation: IC50 means the point on the concentration scale where inhibition reaches its midpoint.

The subject of one experiment is SK-MEL-28 cells. Put plainly: Cytotoxicity in low glucose condition (MTT assay). In kind it is cell-based. As to conditions: Homo sapiens, SK-MEL-28, 72 h, 0.75 mM glucose, 72 hours treatment, read-out: SK-MEL-280.75 mM glucose cell viability (IC50 μM). From the text: Cytotoxicity Assay in Low Glucose Condition
The inhibition of oxidative phosphorylation (OXPHOS) is not cytotoxic to cells in normal glucose condition, because it is postulated that normal cells have compensatory mechanism under energy stress conditions such as low glucose. However OXPHOS inhibitors show cytotoxic effect on cells in the glucose deprived condition (BirsoyK, 2014). The glucose deprived condition is observed in tumor microenvironment potentially due to poor angiogenesis. Therefore the OXPHOS inhibitors may show anti-cancer effect on cancer cells in low glucose condition that may depict tumor microenvironment.
The compounds of the present invention were evaluated their cytotoxicity in SK-MEL-28, melanoma with 0.75 mM glucose supplement. The cytotoxic effect is compared with the cytotoxicity caused by phenformin. The cytotoxicity in low glucose condition is correlated with inhibition of oxygen consumption in mitochondria.
SK-MEL-28 (HTB-72) is a melanoma cell line obtained from ATCC (MA) and cultured in RPMI 1640 media (Lifetechnologies, CA) with supplement of 10% FBS and antibiotic-antimycotic (Lifetechnologies, CA). RPMI 1640 (−Glucose) was used to prepare low glucose media and 0.75 mM glucose was supplied with D-(+)-glucose solution from Sigma. SK-MEL-28 cells were separated from culture plate using 0.5% trypsin-EDTA and 1,250 cells were plated in 96-well plate with low glucose media. After incubation at 37° C. for 24 hour, 5% CO2, the cells were treated with the compounds of present invention in FBS-free media for 72 hours. The cytotoxicity was measured by the MTT (AMRESCO, OH) assay. NADH-dependent cellular oxidoreductase reduces MTT to its insoluble […] with purple color. The enzyme depends on cell number or energy state of cells. 10 μl of 5 mg/ml MTT solution was added to each well of the assay plate and skip the well for blank. The plate was incubated at 37° C. and 5% CO2 for 2 hours. The MTT solution was removed from each well and 100 μl of DMSO was added. The plate was read by VICTOR X3 Multilabel Counter at the wavelength of 550 nm. In Table 2, the levels of IC50 are evaluated by the following criteria.
According to the concentration of compound for killing the half of cell populations (the levels of IC50), the compounds were classified into A, B and C, when the compounds were treated on SK-MEL-28 cells at 0.75 mM glucose.
A general note: Tetrazolium dyes change colour on reduction, which living cells bring about.

For a further experiment, the system named is A549 cells. Put plainly: Test for inhibition of OCR and enhancement of ECAR (XF Analyzer). The note with it: Homo sapiens, 24 hrs treatment, oxygen consumption rate. In kind it is cell-based. From the text:
Measurement of Mitochondrial Complex I Inhibition
The electron transfer complex in mitochondria is composed of 5 complexes. The complex I accept electrons from NADH produced from glycolysis and TCA cycle and the electrons move to complex […] and the electron is finally transferred to O2 and water molecule is generated. During the electron transfer, proton gradient is generated and the chemical gradient is a driving source to synthesize ATP at complex V. The mitochondrial inhibition of complex I indirectly assessed by measuring the oxygen consumption rate (OCR) at complex IV. […] The solution outside of cells becomes acidic (lower pH) as lactate is transported to outside of cells. OCR and Extracellular acidification rate (ECAR) are determined by XF Analyzer (Seahorse Biosciences).
A549 cells were purchased from American Type Tissue Culture Collection (CCL-185™) and cultured in RPMI 1640 supplied with 10% fetal bovine serum (FBS) and antibiotic-antimycotic (Lifetech, CA). A549 cells were separated with 0.5% Trypsin-EDTA and 3,000 cells were plated on 1 mg/ml poly-D-lysine (Sigma, P6407) coated XF 96 well […]. A549 cells were allowed to adhere to the wells for 24 hours under the condition of temperature, 37° C. and 5% CO2. The sensor cartridge of XF Analyzer was soaked in 200 μl of Calibrant solution (Seahorse, MA) in a clear 96-well plate at 37° C. for 24 hours. The compounds of the present invention were diluted with RPMI 1640 without FBS, transferred to A549 cells on XF 96 well plate, and incubated further for 23 hours at 37° C. and 5% CO2. After incubation, the compound solution was exchanged with pre-warmed and pH adjusted (pH7.4) XF assay media (Seahorse) supplied with 15 mM D-glucose (Sigma), 15 mM sodium pyruvate (Lifetechnologies, CA) and 4 mM L-glutamine (Lifetechnologies, CA). The compounds of present invention were prepared in XF Assay media and added to the assay plate. The assay plate was equilibrated in XF Analyzer for 1 hour, and the reading were started by sensor cartridge. The cytotoxicity assay was followed using Cyquant (Lifetechnologies, CA) in order to calibrate the inhibition with cytotoxicity of compounds. The concentrations of the compounds were tested at 0, 0.5, 1, 5, 10 and 20 μM and IC50 value was obtained from the inhibited values. That is, from OCR inhibition values at each concentration of the compound, IC50 was calculated according to Prism's dose response curve fitting.
In Table 1, the levels of OCR IC50 are evaluated by the following.
According to the test results of the compounds, the compounds were classified into A, B and C.

Where a name gives a salt, the structure may show the parent alone. Bounds are passed on as bounds.

In the case of `N=C(NC(=N)N1CCC(F)(F)C1)Nc1ccc(OC(F)(F)F)cc1` [Example 25, N—(N-(4-(trifluoromethoxy)phenyl)carbamimidoyl)-3,3-difluoropyrrolidine-1-carboximidamide acetate], the IC50 in the experiment with SK-MEL-28 cells is less than 6 µM; with A549 cells it was 2 to 4 µM.
With `N=C(NC(=N)N1CCC(F)(F)CC1)Nc1ccc(F)c(Cl)c1` [Example 11, N—(N-(3-chloro-4-fluorophenyl)carbamimidoyl)-4,4-difluoropiperidine-1-carboximidamide hydrochloride], the IC50 in the experiment on SK-MEL-28 cells is 6 to 15 µM; in the experiment with A549 cells, more than 4 µM.
As to `N=C(NC(=N)N1CCC(F)(F)C1)Nc1ccc(OC(F)(F)F)c(Cl)c1` [Example 38, N—(N-(3-chloro-4-(trifluoromethoxy)phenyl)carbamimidoyl)-3,3-difluoropyrrolidine-1-carboximidamide acetate], the IC50 with SK-MEL-28 cells lay within 6 to 15 µM; in the experiment on A549 cells it was 2 to 4 µM.
As to `N=C(NC(=N)N1CCC(F)(F)C1)Nc1ccc(Oc2ccccc2)cc1` [Example 28, N—(N-(4-phenoxyphenyl)carbamimidoyl)-3,3-difluoropyrrolidine-1-carboximidamide acetate], the figures for the IC50 with SK-MEL-28 cells and in the experiment with A549 cells were less than 6 µM and 2 to 4 µM, respectively.
On to `CC(C)c1ccc(NC(=N)NC(=N)N2CCC(F)(F)CC2)cc1` [Example 10, N—(N-(4-isopropylphenyl)carbamimidoyl)-4,4-difluoropiperidine-1-carboximidamide hydrochloride], for which the values for the IC50 with SK-MEL-28 cells and in the experiment with A549 cells were 6 to 15 µM and more than 4 µM, respectively.
As to `N=C(NC(=N)N1CCC(F)(F)C1)Nc1cccc(Oc2ccccc2)c1` [Example 29, N—(N-(3-phenoxyphenyl)carbamimidoyl)-3,3-difluoropyrrolidine-1-carboximidamide acetate], the figures for the IC50 in the experiment on SK-MEL-28 cells and in the experiment on A549 cells were less than 6 µM and less than 2 µM, respectively.
The matching figures for `N=C(NC(=N)N1CCC(F)(F)CC1)Nc1ccc(Oc2ccccc2)cc1` [Example 23, N—(N-(4-phenoxyphenyl)carbamimidoyl)-4,4-difluoropiperidine-1-carboximidamide acetate]: less than 6 µM and 2 to 4 µM.
